Source: patent US20090312280A1

Key:
Fgr = Fgr (Homo sapiens, UniProt P09769); assay: biochemical kinase screening assay
Flt3 = Flt3 (Homo sapiens, UniProt P36888); assay: biochemical kinase screening assay
PC-3 (Prostate) = assay: cell survival / MTT combination cytotoxicity; assay type: cell-based, human; settings: Homo sapiens
A431 tumor xenografts = assay: in vivo radio sensitizing study, A431 xenograft; parameters: species or system mice; settings: for Normalized Tumor Growth Delay: versus drug alone; for Tumor Growth Delay: versus vehicle control
From the text: Female Balb/c nude mice (Age 6 weeks) were inoculated on the right hind limb with 3×10^6 A431 cells in PBS and allowed the tumor to grow to a mean tumor volume ˜100 mm^3. The mice were randomized into groups of 10 animals each group.
The unanaesthetized mice were then subjected to radiation. Radiation was delivered using a 6 MeV high dose rate electron beam from a Varian 2100 Linear Accelerator (Palo Alto, Calif.). The dose rate used was 20 Gy/min. The depth-dose characteristics of the electron beam were such that dose uniformity to within ±5 % was obtained over a 10 mm depth of tissue. This was sufficient to cover all tumor irradiated. The tumor was irradiated though a 25 mm square collimator cut from 3 mm thick lead sheet attached to a 6 mm thick Perspex sheet. The separation between the tumor and the lower (Perspex) side of the surface collimator was approximately 25 mm. The apparatus was supported on a plate heated to 37° C. in order to reduce the effects of heat loss in the mice. Radiation doses were calculated and delivered by a senior radiation physicist. Radiotherapy was given as described above on Days 0-4 as 2, 3 or 4 Gy daily fractions.
The solution was prepared immediately prior to dosing and (15 mg/kg) was administered by intraperitoneal injection at 15 mg/kg on Days 0-4 immediately following radiotherapy. The above solution that contains no Compound 1 is considered as the “drug vehicle” or “vehicle”. Drug vehicle was administered at 0.1 ml/10 g body weight on the same schedule.
Each group of mice were treated with Compound 1 only, radiation only, or the combination of Compound 1 and radiation. Animals were sacrificed when Tumor Volume Ratio (TVR) reached or exceeded 4 or if the mouse had lost more than 15% of its baseline body weight at Day 0. Tumor Volume Ratio is defined as the ratio between the tumors volume at a particular time and the baseline tumor volume, which is the tumor volume at Day 0.
Tumor volume was measured three times weekly from day 0 to day 11 and even further to day 23. Tumor volume was measured using electronic calipers and calculated as length/2×width^2. The mean tumor volume was calculated for each group of mice.
Tumor growth delay is defined as the median time in days for tumors to reach a TVR of 4 minus time for vehicle control tumors to reach the same size. Normalized growth delay is defined as the time in days for tumors in combination treated mice to reach TVR of 4 minus time in days for tumors in drug alone treated mice to reach the same size. Enhancement ratio is defined as normalized tumor growth delay in mice treated with drug and radiation divided by tumor growth delay in mice treated with radiation alone.

[1] = maximum tolerated dose by mean body weight loss; settings: in vivo
[2] = tested on: p53-defective human cancer cell lines; assay: cell survival / MTT assays, cell line not named; assay type: cell-based
Yes = Yes (Homo sapiens, UniProt P07947); assay: biochemical kinase screening assay
Chain of Yes (P07947 whole entry): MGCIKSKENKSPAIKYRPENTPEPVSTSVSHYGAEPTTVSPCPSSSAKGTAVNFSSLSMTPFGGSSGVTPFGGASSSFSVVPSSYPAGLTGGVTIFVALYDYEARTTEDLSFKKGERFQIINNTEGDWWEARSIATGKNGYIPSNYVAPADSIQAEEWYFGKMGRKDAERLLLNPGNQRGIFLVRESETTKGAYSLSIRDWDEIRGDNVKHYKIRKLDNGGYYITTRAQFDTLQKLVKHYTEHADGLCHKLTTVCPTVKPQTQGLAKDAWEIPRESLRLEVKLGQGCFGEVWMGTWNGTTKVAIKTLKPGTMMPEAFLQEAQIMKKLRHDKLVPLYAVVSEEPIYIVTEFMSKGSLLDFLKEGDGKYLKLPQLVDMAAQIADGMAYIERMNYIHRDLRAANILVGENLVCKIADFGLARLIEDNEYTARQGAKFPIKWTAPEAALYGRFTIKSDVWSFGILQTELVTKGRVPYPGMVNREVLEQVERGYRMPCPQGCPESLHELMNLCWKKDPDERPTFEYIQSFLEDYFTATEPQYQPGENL

Lyn = Lyn (Homo sapiens, UniProt P07948); assay: biochemical kinase screening assay
Chain of Lyn (P07948 whole entry): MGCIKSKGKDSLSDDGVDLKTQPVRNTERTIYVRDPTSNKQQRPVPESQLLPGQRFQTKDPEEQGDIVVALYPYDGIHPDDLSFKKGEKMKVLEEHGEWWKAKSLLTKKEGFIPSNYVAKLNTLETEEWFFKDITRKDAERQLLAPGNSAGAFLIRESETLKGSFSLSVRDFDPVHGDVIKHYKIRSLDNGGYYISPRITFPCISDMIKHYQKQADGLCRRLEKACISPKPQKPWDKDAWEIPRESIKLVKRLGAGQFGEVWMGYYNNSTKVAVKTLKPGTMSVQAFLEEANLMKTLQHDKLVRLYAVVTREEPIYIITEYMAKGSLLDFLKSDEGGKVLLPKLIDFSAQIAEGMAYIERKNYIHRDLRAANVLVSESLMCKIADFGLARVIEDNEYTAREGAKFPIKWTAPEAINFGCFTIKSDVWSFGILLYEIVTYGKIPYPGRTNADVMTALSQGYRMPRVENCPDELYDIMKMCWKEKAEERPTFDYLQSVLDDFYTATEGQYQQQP

cSRC = cSRC (Homo sapiens, UniProt P12931); assay: biochemical kinase screening assay
Colo205 (Colon) = assay: cell survival / MTT combination cytotoxicity; assay type: cell-based, human; settings: Homo sapiens, COLO 205
HT29 (Colon) = assay: cell survival / MTT combination cytotoxicity; assay type: cell-based, human; settings: Homo sapiens, HT-29
HUVEC cells = assay: cell survival assay in normal cells; assay type: cell-based
Method: The cytotoxic effect induced by the combination treatment in HUVEC cells is negligible compared with the cytotoxicity induced by the same treatment in tumor cells. […] A cell survival assay was also performed in HTC116 cells (human colon carcinoma) that were transiently transfected with a plasmid containing either p53 wild type or mutant.

in vivo = settings: mouse
Axl = Axl (Homo sapiens, UniProt P30530); assay: biochemical kinase screening assay
EphB4 = EphB4 (Homo sapiens, UniProt P54760); assay: biochemical kinase screening assay
Chain of EphB4 (P54760 16-987): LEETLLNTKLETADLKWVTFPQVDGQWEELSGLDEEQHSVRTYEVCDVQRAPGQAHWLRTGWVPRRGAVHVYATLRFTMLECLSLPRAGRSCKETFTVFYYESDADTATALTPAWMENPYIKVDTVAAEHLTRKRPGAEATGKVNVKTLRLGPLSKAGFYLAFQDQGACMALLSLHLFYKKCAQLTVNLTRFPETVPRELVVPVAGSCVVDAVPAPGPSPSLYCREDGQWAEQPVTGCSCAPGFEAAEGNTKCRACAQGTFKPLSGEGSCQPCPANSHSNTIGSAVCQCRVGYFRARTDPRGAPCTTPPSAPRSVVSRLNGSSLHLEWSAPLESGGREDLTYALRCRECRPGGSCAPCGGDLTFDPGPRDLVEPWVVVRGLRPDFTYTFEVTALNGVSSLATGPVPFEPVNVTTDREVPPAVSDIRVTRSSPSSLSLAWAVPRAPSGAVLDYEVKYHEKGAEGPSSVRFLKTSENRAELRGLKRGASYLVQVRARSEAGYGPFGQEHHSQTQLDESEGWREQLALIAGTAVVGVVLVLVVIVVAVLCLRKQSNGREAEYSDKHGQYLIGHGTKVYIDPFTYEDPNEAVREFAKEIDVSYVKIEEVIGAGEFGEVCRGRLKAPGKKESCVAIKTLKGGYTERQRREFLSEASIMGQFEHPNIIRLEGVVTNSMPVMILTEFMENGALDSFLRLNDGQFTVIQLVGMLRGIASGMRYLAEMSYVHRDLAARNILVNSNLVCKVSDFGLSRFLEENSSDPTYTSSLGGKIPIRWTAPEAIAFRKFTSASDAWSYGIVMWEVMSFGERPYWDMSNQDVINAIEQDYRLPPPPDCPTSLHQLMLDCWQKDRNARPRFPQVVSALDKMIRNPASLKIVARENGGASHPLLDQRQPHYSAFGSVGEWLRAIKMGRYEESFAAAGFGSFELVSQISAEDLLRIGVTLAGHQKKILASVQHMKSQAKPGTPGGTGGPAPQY

Blk(m) = Blk(m) (Mus musculus, UniProt P16277); assay: biochemical kinase screening assay
Chain of Blk(m) (P16277 whole entry): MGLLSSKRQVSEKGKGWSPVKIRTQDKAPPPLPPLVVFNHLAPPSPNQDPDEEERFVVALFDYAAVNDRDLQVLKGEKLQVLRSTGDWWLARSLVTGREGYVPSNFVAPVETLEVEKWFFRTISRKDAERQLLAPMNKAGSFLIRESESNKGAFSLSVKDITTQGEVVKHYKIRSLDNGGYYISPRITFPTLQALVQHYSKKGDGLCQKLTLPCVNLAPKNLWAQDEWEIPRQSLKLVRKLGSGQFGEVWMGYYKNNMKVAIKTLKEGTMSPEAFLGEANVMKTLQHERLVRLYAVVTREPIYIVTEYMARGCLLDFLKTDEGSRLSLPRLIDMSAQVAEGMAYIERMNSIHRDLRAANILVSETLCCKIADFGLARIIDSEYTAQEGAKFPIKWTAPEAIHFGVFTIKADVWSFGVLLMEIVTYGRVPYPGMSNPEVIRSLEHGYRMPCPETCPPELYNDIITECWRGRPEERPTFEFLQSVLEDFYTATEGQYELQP

Chk2 = Chk2 (Homo sapiens, UniProt O96017); assay: biochemical kinase screening assay; settings: read-out: IC50 (nM), given as Ki
Chain of Chk2 (O96017 whole entry): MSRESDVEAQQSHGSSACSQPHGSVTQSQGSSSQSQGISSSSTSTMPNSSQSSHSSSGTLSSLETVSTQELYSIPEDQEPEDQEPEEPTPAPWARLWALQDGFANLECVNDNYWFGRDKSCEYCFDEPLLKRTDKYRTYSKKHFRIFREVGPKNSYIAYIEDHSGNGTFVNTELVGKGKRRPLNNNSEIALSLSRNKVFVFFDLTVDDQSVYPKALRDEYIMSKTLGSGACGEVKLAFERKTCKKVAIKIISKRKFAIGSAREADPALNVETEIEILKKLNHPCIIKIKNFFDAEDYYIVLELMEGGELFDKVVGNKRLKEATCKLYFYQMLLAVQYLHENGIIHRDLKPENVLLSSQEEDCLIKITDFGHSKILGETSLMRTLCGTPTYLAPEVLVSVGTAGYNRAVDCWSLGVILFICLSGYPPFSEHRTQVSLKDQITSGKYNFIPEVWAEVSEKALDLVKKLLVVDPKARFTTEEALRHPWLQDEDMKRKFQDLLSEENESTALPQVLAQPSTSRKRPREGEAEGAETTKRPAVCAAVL

[3] = Compound 1 15 mg/kg IP plus Radiation (2 Gy × 5)
[4] = Compound 1 15 mg/kg IP plus Radiation (3 Gy × 5)
[5] = Compound 1 15 mg/kg IP plus Radiation (4 Gy × 5)
[6] = Compound 1 alone, 15 mg/kg IP Days 0-4

Chain of Fgr (P09769 whole entry): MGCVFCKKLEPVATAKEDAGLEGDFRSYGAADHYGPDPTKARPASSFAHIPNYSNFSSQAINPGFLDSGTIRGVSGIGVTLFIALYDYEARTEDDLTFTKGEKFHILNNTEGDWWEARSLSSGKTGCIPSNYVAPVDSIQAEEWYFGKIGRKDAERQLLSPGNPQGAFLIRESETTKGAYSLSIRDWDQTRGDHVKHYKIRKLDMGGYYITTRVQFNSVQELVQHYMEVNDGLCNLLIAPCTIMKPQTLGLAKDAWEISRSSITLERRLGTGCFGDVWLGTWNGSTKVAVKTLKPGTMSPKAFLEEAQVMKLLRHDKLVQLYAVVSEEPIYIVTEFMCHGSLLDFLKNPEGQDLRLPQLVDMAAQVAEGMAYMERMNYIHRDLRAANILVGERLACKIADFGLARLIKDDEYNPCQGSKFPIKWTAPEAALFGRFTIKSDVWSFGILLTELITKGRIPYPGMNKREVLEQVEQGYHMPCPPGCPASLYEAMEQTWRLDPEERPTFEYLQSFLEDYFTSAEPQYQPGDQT
Chain of Flt3 (P36888 27-993): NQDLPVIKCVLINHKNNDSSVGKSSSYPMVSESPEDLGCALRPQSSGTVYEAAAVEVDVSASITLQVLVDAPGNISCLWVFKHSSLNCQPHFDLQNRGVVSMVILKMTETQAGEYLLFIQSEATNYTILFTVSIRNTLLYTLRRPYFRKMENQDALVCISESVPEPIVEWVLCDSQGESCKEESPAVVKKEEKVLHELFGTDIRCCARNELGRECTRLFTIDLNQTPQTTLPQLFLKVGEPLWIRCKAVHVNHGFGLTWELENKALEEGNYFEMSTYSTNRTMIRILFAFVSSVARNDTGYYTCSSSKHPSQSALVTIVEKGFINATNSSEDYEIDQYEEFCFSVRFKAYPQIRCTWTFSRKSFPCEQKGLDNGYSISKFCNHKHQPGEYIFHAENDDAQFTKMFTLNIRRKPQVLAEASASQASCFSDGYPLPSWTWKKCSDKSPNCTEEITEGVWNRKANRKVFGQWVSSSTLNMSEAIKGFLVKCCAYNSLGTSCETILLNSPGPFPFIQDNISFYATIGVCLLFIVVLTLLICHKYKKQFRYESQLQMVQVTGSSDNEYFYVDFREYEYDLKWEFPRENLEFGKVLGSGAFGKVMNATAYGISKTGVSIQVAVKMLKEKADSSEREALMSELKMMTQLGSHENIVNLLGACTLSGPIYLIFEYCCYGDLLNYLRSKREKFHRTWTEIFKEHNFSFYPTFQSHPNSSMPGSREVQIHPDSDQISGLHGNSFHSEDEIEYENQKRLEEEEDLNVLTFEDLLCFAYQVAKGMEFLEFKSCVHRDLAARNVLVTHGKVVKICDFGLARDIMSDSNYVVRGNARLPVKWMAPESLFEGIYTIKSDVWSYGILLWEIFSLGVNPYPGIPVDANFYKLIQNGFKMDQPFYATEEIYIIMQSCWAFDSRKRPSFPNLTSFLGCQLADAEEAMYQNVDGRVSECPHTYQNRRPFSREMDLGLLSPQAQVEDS

Cn1cc(-c2[nH]c3cc(NC(=O)[C@H](N)C4CCCCC4)cc4c3c2C=NNC4=O)cn1 [Compound 1]
IC50 (Fgr): 153 nM
IC50 (Flt3): 25 nM
IC50 (PC-3 (Prostate)): 1600 nM
Median time to TVR = 4 (A431 tumor xenografts; [3]): 11.1 days
Normalized Tumor Growth Delay (A431 tumor xenografts; [3]): 3.75 days
Tumor Growth Delay (A431 tumor xenografts; [3]): 2.7 days
Median time to TVR = 4 (A431 tumor xenografts; [4]): 15.1 days
Normalized Tumor Growth Delay (A431 tumor xenografts; [4]): 7.75 days
Tumor Growth Delay (A431 tumor xenografts; [4]): 6.7 days
Median time to TVR = 4 (A431 tumor xenografts; [5]): 13 days
Normalized Tumor Growth Delay (A431 tumor xenografts; [5]): 5.65 days
Tumor Growth Delay (A431 tumor xenografts; [5]): 4.6 days
Median time to TVR = 4 (A431 tumor xenografts; [6]): 7.35 days
Tumor Growth Delay (A431 tumor xenografts; [6]): -1.05 days
mean tumor volume (A431 tumor xenografts; day 0, 2 Gy + Cmpd 1 15 mg/kg IP, Days 0-4): 94.51 mm^3
mean tumor volume (A431 tumor xenografts; day 0, 3 Gy + Cmpd 1 15 mg/kg IP, Days 0-4): 104.26 mm^3
mean tumor volume (A431 tumor xenografts; day 0, 4 Gy + Cmpd 1 15 mg/kg IP, Days 0-4): 101.97 mm^3
mean tumor volume (A431 tumor xenografts; day 0, Cmpd 1 only, 15 mg/kg IP Days 0-4): 104.23 mm^3
mean tumor volume (A431 tumor xenografts; day 2, 2 Gy + Cmpd 1 15 mg/kg IP, Days 0-4): 145.53 mm^3
mean tumor volume (A431 tumor xenografts; day 2, 3 Gy + Cmpd 1 15 mg/kg IP, Days 0-4): 149.88 mm^3
mean tumor volume (A431 tumor xenografts; day 2, 4 Gy + Cmpd 1 15 mg/kg IP, Days 0-4): 150.81 mm^3
mean tumor volume (A431 tumor xenografts; day 2, Cmpd 1 only, 15 mg/kg IP Days 0-4): 158.07 mm^3
mean tumor volume (A431 tumor xenografts; day 4, 2 Gy + Cmpd 1 15 mg/kg IP, Days 0-4): 198.57 mm^3
mean tumor volume (A431 tumor xenografts; day 4, 3 Gy + Cmpd 1 15 mg/kg IP, Days 0-4): 210.23 mm^3
mean tumor volume (A431 tumor xenografts; day 4, 4 Gy + Cmpd 1 15 mg/kg IP, Days 0-4): 209.44 mm^3
mean tumor volume (A431 tumor xenografts; day 4, Cmpd 1 only, 15 mg/kg IP Days 0-4): 242.46 mm^3
mean tumor volume (A431 tumor xenografts; day 7, 2 Gy + Cmpd 1 15 mg/kg IP, Days 0-4): 255.23 mm^3
mean tumor volume (A431 tumor xenografts; day 7, 3 Gy + Cmpd 1 15 mg/kg IP, Days 0-4): 200.48 mm^3
mean tumor volume (A431 tumor xenografts; day 7, 4 Gy + Cmpd 1 15 mg/kg IP, Days 0-4): 307.93 mm^3
mean tumor volume (A431 tumor xenografts; day 7, Cmpd 1 only, 15 mg/kg IP Days 0-4): 418.28 mm^3
mean tumor volume (A431 tumor xenografts; day 9, 2 Gy + Cmpd 1 15 mg/kg IP, Days 0-4): 339.76 mm^3
mean tumor volume (A431 tumor xenografts; day 9, 3 Gy + Cmpd 1 15 mg/kg IP, Days 0-4): 164.45 mm^3
mean tumor volume (A431 tumor xenografts; day 9, 4 Gy + Cmpd 1 15 mg/kg IP, Days 0-4): 294.63 mm^3
mean tumor volume (A431 tumor xenografts; day 9, Cmpd 1 only, 15 mg/kg IP Days 0-4): 580.35 mm^3
mean tumor volume (A431 tumor xenografts; day 11, 2 Gy + Cmpd 1 15 mg/kg IP, Days 0-4): 401.96 mm^3
mean tumor volume (A431 tumor xenografts; day 11, 3 Gy + Cmpd 1 15 mg/kg IP, Days 0-4): 210.35 mm^3
mean tumor volume (A431 tumor xenografts; day 11, 4 Gy + Cmpd 1 15 mg/kg IP, Days 0-4): 487.78 mm^3
mean tumor volume (A431 tumor xenografts; day 11, Cmpd 1 only, 15 mg/kg IP Days 0-4): 790.82 mm^3
mean tumor volume (A431 tumor xenografts; day 14, 2 Gy + Cmpd 1 15 mg/kg IP, Days 0-4): 644.80 mm^3
mean tumor volume (A431 tumor xenografts; day 14, 3 Gy + Cmpd 1 15 mg/kg IP, Days 0-4): 283.51 mm^3
mean tumor volume (A431 tumor xenografts; day 14, 4 Gy + Cmpd 1 15 mg/kg IP, Days 0-4): 815.01 mm^3
mean tumor volume (A431 tumor xenografts; day 16, 3 Gy + Cmpd 1 15 mg/kg IP, Days 0-4): 408.01 mm^3
mean tumor volume (A431 tumor xenografts; day 18, 3 Gy + Cmpd 1 15 mg/kg IP, Days 0-4): 433.83 mm^3
mean tumor volume (A431 tumor xenografts; day 21, 3 Gy + Cmpd 1 15 mg/kg IP, Days 0-4): 395.17 mm^3
mean tumor volume (A431 tumor xenografts; day 23, 3 Gy + Cmpd 1 15 mg/kg IP, Days 0-4): 513.31 mm^3
MTD [1]: 40 mg/kg
effect on cell viability ([2]; Compound 1 alone compared with control (untreated) cells): no significant effect on cell viability
potentiation of gemcitabine cytotoxicity ([2]; combination with gemcitabine compared with gemcitabine alone): 89%
IC50 (Yes): 14 nM
IC50 (Lyn): 266 nM
IC50 (cSRC): 442 nM
IC50 (Colo205 (Colon)): 1300 nM
IC50 (HT29 (Colon)): 1800 nM
increase in cell kill (HUVEC cells; Compound 1 540 nM (12×EC50) + camptothecin compared with camptothecin alone): 21.7
increase in cell kill (HUVEC cells; Compound 1 540 nM (12×EC50) + gemcitabine compared with gemcitabine alone): 31.2%
MTD (in vivo): 60 mg/kg
IC50 (Axl): 117 nM
IC50 (EphB4): > 10000 nM
IC50 (Blk(m)): 365 nM
Ki (Chk2): 47 nM
